Patent publication US8785457B2 (Cellzome Limited, priority 2009, dated 2014)
Like-named read-outs stand apart in the source and are kept apart here.

Experiments:
mTOR = target: T1, mTOR (Homo sapiens, UniProt P42345); test: mTOR kinobeads assay (competitive binding in Jurkat cell lysate, immunodetection); details: kinobeads assay
T1 construct: endogenous in cells; host or cells: Jurkat, clone E6-1 (ATCC TIB-152) cell lysate
In short: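 IC50 derived from dose-response curves of mTOR captured on immobilized phenylmorpholin-chromen beads, detected by antibody dot blot with infrared fluorescence.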

PI3 Kgamma (PI3 Kg) = target: T2, PI3 Kgamma (PI3 Kg) (Homo sapiens, UniProt P48736); test: kinobeads assay, PI3Kgamma; type: binding; details: kinobeads assay, Table 6; read-out: Inhibition values (IC50) PI3Kg
T2 construct: endogenous in cells; host or cells: cell lysate
In short: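 Cell lysate aliquots are incubated with compound over a concentration range and with an affinity matrix of immobilized phenylmorpholin-chromen ligand. Beads are then removed, bound proteins eluted, and each kinase is quantified by multiplexed immunodetection to derive IC50 values.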

[1] = Table 6, read-out: Inhibition values (IC50) mTOR
[2] = Table 4, read-out: Inhibition values (IC50) mTor

T2 sequence (P48736 whole entry): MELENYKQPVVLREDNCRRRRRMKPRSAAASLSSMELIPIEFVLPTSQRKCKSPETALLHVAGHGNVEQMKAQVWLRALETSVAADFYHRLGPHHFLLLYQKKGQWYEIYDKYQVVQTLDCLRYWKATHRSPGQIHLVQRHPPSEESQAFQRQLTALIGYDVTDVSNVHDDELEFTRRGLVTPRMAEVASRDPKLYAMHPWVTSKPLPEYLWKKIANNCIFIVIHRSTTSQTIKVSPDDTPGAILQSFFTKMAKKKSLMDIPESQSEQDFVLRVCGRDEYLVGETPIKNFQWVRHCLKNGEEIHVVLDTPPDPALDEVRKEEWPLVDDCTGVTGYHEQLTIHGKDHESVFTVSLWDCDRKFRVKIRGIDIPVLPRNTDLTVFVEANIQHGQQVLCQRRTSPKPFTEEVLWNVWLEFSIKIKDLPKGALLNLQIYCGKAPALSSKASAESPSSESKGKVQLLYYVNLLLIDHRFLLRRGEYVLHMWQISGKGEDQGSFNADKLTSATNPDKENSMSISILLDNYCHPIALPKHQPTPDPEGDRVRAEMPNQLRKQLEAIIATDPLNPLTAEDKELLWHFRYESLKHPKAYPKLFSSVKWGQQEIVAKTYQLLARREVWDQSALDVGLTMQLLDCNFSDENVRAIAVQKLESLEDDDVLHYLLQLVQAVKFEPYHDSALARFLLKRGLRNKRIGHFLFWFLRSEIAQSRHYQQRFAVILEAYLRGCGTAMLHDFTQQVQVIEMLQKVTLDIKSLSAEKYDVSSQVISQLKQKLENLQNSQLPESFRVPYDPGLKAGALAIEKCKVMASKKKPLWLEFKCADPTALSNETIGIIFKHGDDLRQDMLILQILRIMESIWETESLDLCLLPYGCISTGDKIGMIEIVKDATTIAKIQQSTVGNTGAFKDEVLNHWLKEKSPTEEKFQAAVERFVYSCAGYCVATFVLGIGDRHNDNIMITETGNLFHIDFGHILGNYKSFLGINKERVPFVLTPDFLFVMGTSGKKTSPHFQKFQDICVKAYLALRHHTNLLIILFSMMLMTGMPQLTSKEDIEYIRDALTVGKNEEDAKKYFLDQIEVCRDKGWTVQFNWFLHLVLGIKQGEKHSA

SMILES	IC50 (mTOR; [1]) [µM]	IC50 (PI3 Kgamma (PI3 Kg)) [µM]	IC50 (mTOR; [2]) [µM]
CCNC(=O)Nc1ccc(-c2nc3c(c(N4CCOCC4)n2)CCN(C(=O)NCC)C3)cc1 [Example 94, N-ethyl-2-(4-(3-ethylureido)phenyl)-4-morpholino-5,6-dihydropyrido[3,4-d]pyrimidine-7(8H)-carboxamide]	0.1 to 1	> 10	
CCNC(=O)Nc1ccc(-c2nc3c(c(N4CCOC[C@@H]4C)n2)CN(C(=O)OCC)CC3)cc1 [Example 107, (S)-ethyl 2-(4-(3-ethylureido)phenyl)-4-(3-methylmorpholino)-7,8-dihydropyrido[4,3-d]pyrimidine-6(5H)-carboxylate]	0.1 to 1	> 10	
CCNC(=O)Nc1ccc(-c2nc3c(c(N4CCOC[C@@H]4C)n2)CN(C2CCN(C(=O)OC)CC2)C3)cc1F [Example 122, (S)-methyl 4-(2-(4-(3-ethylureido)-3-fluorophenyl)-4-(3-methylmorpholino)-5H-pyrrolo[3,4-d]pyrimidin-6(7H)-yl)piperidine-1-carboxylate]	0.1 to 1	> 10	
CCOC(=O)N1Cc2nc(-c3ccc(NC(=O)NCCO)c(F)c3)nc(N3CCOC[C@@H]3C)c2C1 [Example 104, (S)-ethyl-2-(3-fluoro-4-(3-(2-hydroxyethyl)ureido)phenyl)-4-(3-methylmorpholino)-5H-pyrrolo[3,4-d]pyrimidine-6(7H)-carboxylate]	0.1 to 1	> 10	
C[C@H]1COCCN1c1nc(-c2ccc(NC(=O)Nc3ccn(C)n3)cc2)nc2c1CN(C)C2 [Example 84, (S)-1-(1-methyl-1H-pyrazol-3-yl)-3-(4-(6-methyl-4-(3-methylmorpholino)-6,7-dihydro-5H-pyrrolo[3,4-d]pyrimidin-2-yl)phenyl)urea]	0.1 to 1	> 10	
CCNC(=O)Nc1ccc(-c2nc3c(c(N4CCOCC4)n2)CCN(C)C3)cc1 [Example 93, 1-ethyl-3-(4-(7-methyl-4-morpholino-5,6,7,8-tetrahydropyrido[3,4-d]pyrimidin-2-yl)phenyl)urea]	0.1 to 1	> 10	
CCNC(=O)Nc1ccc(-c2nc3c(c(N4CCOCC4)n2)CCN(C(C)=O)C3)cc1 [Example 97, 1-(4-(7-acetyl-4-morpholino-5,6,7,8-tetrahydropyrido[3,4-d]pyrimidin-2-yl)phenyl)-3-ethylurea]	< 0.1	> 10	
CCNC(=O)Nc1ccc(-c2nc3c(c(N4CCOC[C@@H]4C)n2)CN(CC(F)(F)F)C3)cc1 [Example 68, (S)-1-ethyl-3-(4-(4-(3-methylmorpholino)-6-(2,2,2-trifluoroethyl)-6,7-dihydro-5H-pyrrolo[3,4-d]pyrimidin-2-yl)phenyl)urea]	0.1 to 1	> 10	
C[C@H]1COCCN1c1nc(-c2ccc(NC(N)=O)cc2)nc2c1CN(C)C2 [Example 71, (S)-1-(4-(6-methyl-4-(3-methylmorpholino)-6,7-dihydro-5H-pyrrolo[3,4-d]pyrimidin-2-yl)phenyl)urea]	< 0.1	1 to 10	
Cc1cc(NC(=O)Nc2ccc(-c3nc4c(c(N5CCOC[C@@H]5C)n3)CN(C)C4)cc2)no1 [Example 72, (S)-1-(4-(6-methyl-4-(3-methylmorpholino)-6,7-dihydro-5H-pyrrolo[3,4-d]pyrimidin-2-yl)phenyl)-3-(5-methylisoxazol-3-yl)urea]	0.1 to 1	> 10	
CCNC(=O)Nc1ccc(-c2nc3c(c(N4CCOC[C@@H]4C)n2)CN(C(C)C)C3)cc1 [Example 74, (S)-1-ethyl-3-(4-(6-isopropyl-4-(3-methylmorpholino)-6,7-dihydro-5H-pyrrolo[3,4-d]pyrimidin-2-yl)phenyl)urea]	< 0.1	> 10	
CC(=O)N1CCc2c(nc(-c3ccc(NC(=O)NC4CC4)cc3)nc2N2CCOC[C@@H]2C)C1 [Example 62, (S)-1-(4-(7-acetyl-4-(3-methylmorpholino)-5,6,7,8-tetrahydropyrido[3,4-d]pyrimidin-2-yl)phenyl)-3-cyclopropylurea]	< 0.1	> 10	< 0.1
CCNC(=O)Nc1ccc(-c2nc3c(c(N4CCOC[C@@H]4C)n2)CCN(C(=O)CO)C3)cc1 [Example 102, (S)-1-ethyl-3-(4-(7-(2-hydroxyacetyl)-4-(3-methylmorpholino)-5,6,7,8-tetrahydropyrido[3,4-d]pyrimidin-2-yl)phenyl)urea]	< 0.1	> 10	
CCNC(=O)Nc1ccc(-c2nc3c(c(N4CCOC[C@@H]4C)n2)CCN(CC(C)C)C3)cc1.O=CO [Example 76, (S)-1-ethyl-3-(4-(7-isobutyl-4-(3-methylmorpholino)-5,6,7,8-tetrahydropyrido[3,4-d]pyrimidin-2-yl)phenyl)urea formate]	< 0.1	> 10	
C[C@H]1COCCN1c1nc(-c2ccc(NC(=O)NC3CC3)cc2)nc2c1CN(C(=O)C1CCOCC1)C2 [Example 129, (S)-1-cyclopropyl-3-(4-(4-(3-methylmorpholino)-6-(tetrahydro-2H-pyran-4-carbonyl)-6,7-dihydro-5H-pyrrolo[3,4-d]pyrimidin-2-yl)phenyl)urea]	< 0.1	> 10	
CCOC(=O)N1Cc2nc(-c3ccc(NC(=O)Nc4ccncc4)cc3)nc(N3CCOC[C@@H]3C)c2C1 [Example 121, (S)-ethyl 4-(3-methylmorpholino)-2-(4-(3-(pyridin-4-yl)ureido)phenyl)-5H-pyrrolo[3,4-d]pyrimidine-6(7H)-carboxylate]	< 0.1	> 10	
CCNC(=O)Nc1ccc(-c2nc3c(c(N4CCOC[C@@H]4C)n2)CN(CC(C)(C)C)C3)cc1 [Example 67, (S)-1-ethyl-3-(4-(4-(3-methylmorpholino)-6-neopentyl-6,7-dihydro-5H-pyrrolo[3,4-d]pyrimidin-2-yl)phenyl)urea]	0.1 to 1	> 10	
CCNC(=O)Nc1ccc(-c2nc3c(c(N4CCOCC4)n2)CN(C(=O)OCC)C3)cc1 [Example 70, Ethyl 2-(4-(3-ethylureido)phenyl)-4-morpholino-5H-pyrrolo[3,4-d]pyrimidine-6(7H)-carboxylate]	< 0.1	> 10	
CCNC(=O)Nc1ccc(-c2nc3c(c(N4CCOCC4)n2)CN(C(=O)C(C)(C)C)C3)cc1 [Example 100, 1-ethyl-3-(4-(4-morpholino-6-pivaloyl-6,7-dihydro-5H-pyrrolo[3,4-d]pyrimidin-2-yl)phenyl)urea]	0.1 to 1	> 10	
CCNC(=O)Nc1ccc(-c2nc3c(c(N4CCOC[C@@H]4C)n2)CN(C(=O)OC(C)(C)C)C3)cc1 [Example 1, (S)-tert-butyl 2-(4-(3-ethylureido)phenyl)-4-(3-methylmorpholino)-5H-pyrrolo[3,4-d]pyrimidine-6(7H)-carboxylate]	0.1 to 1		0.1 to 1
CCNC(=O)Nc1ccc(-c2nc3c(c(N4CCOCC4)n2)CCN(C(=O)OCC)C3)cc1 [Example 96, ethyl 2-(4-(3-ethylureido)phenyl)-4-morpholino-5,6-dihydropyrido[3,4-d]pyrimidine-7(8H)-carboxylate]	0.1 to 1	> 10	
CCOC(=O)N1Cc2nc(-c3ccc(NC(=O)NCCF)cc3)nc(N3CCOC[C@@H]3C)c2C1 [Example 120, (S)-ethyl 2-(4-(3-(2-fluoroethyl)ureido)phenyl)-4-(3-methylmorpholino)-5H-pyrrolo[3,4-d]pyrimidine-6(7H)-carboxylate]	< 0.1	> 10	
CCNC(=O)Nc1cc(F)c(-c2nc3c(c(N4CCOC[C@@H]4C)n2)CCN(C)C3)cc1F [Example 108, (S)-1-(2,5-difluoro-4-(7-methyl-4-(3-methylmorpholino)-5,6,7,8-tetrahydropyrido[3,4-d]pyrimidin-2-yl)phenyl)-3-ethylurea]	0.1 to 1	> 10	
CCNC(=O)Nc1ccc(-c2nc3c(c(N4CCOCC4)n2)CCN(C(=O)C(C)(C)C)C3)cc1 [Example 98, 1-ethyl-3-(4-(4-morpholino-7-pivaloyl-5,6,7,8-tetrahydropyrido[3,4-d]pyrimidin-2-yl)phenyl)urea]	< 0.1	> 10	
C[C@H]1COCCN1c1nc(-c2ccc(NC(=O)NCCO)cc2)nc2c1CN(C)C2 [Example 73, (S)-1-(2-hydroxyethyl)-3-(4-(6-methyl-4-(3-methylmorpholino)-6,7-dihydro-5H-pyrrolo[3,4-d]pyrimidin-2-yl)phenyl)urea]	< 0.1	> 10	
C[C@H]1COCCN1c1nc(-c2ccc(NC(=O)NC3CC3)cc2)nc2c1CN(CC(F)(F)F)C2 [Example 101, (S)-1-cyclopropyl-3-(4-(4-(3-methylmorpholino)-6-(2,2,2-trifluoroethyl)-6,7-dihydro-5H-pyrrolo[3,4-d]pyrimidin-2-yl)phenyl)urea]	0.1 to 1		
CC(C)CN1Cc2nc(-c3ccc(NC(=O)NC4CC4)cc3)nc(N3CCOC[C@@H]3C)c2C1 [Example 65, (S)-1-cyclopropyl-3-(4-(6-isobutyl-4-(3-methylmorpholino)-6,7-dihydro-5H-pyrrolo[3,4-d]pyrimidin-2-yl)phenyl)urea]	< 0.1	> 10	
CCNC(=O)Nc1ncc(-c2nc3c(c(N4CCOC[C@@H]4C)n2)CCN(C)C3)s1 [Example 106, (S)-1-ethyl-3-(5-(7-methyl-4-(3-methylmorpholino)-5,6,7,8-tetrahydropyrido[3,4-d]pyrimidin-2-yl)thiazol-2-yl)urea]	0.1 to 1	> 10	
CCNC(=O)Nc1ccc(-c2nc3c(c(N4CCOC[C@@H]4C)n2)CCN(C(C)=O)C3)cc1 [Example 59, (S)-1-(4-(7-acetyl-4-(3-methylmorpholino)-5,6,7,8-tetrahydropyrido[3,4-d]pyrimidin-2-yl)phenyl)-3-ethylurea]	< 0.1		< 0.1
